Assay results taken from PubChem BioAssay (NCI).
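Following 48 hours of exposure in 96-well plates, responses at five concentrations were used to interpolate endpoints linearly. GI50 marks 50% less growth. TGI: concentration producing complete growth inhibition.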

Legend:
Experiment in all cases: inhibition of tumour cell growth, NCI panel, 48 h
COLO 205 colon = test system: COLO 205 colon
EKVX NSCLC = test system: EKVX NSCLC
HL-60(TB) leukemia = test system: HL-60(TB) leukemia
HOP-92 NSCLC = test system: HOP-92 NSCLC
KM12 colon = test system: KM12 colon
MOLT-4 leukemia = test system: MOLT-4 leukemia
OVCAR-4 ovarian = test system: OVCAR-4 ovarian
SK-OV-3 ovarian = test system: SK-OV-3 ovarian
SF-268 CNS = test system: SF-268 CNS
MDA-MB-231 breast = test system: MDA-MB-231 breast

For CN(N=O)C(=O)NC(CCCCNC(=O)OCc1ccccc1)C(=O)OCc1ccccc1 (stereo unspecified), the TGI (COLO 205 colon) was 47.2 µM, the TGI (EKVX NSCLC) was > 100 µM and the TGI (HL-60(TB) leukemia) was 48.7 µM. For the same molecule, the TGI (HOP-92 NSCLC) was 54.2 µM, the TGI (KM12 colon) was > 100 µM and the TGI (MOLT-4 leukemia) was 64.9 µM. For the same molecule, the TGI (OVCAR-4 ovarian) was > 100 µM and the TGI (SK-OV-3 ovarian) was > 100 µM.
For CC(C)N1CCOC(c2ccc(O)c(O)c2)C1 (stereo unspecified), the TGI (COLO 205 colon) was > 100 µM, the TGI (EKVX NSCLC) was > 100 µM and the TGI (HL-60(TB) leukemia) was > 100 µM. For the same molecule, the TGI (HOP-92 NSCLC) was > 100 µM, the TGI (KM12 colon) was > 100 µM and the TGI (MOLT-4 leukemia) was > 100 µM. For the same molecule, the TGI (OVCAR-4 ovarian) was > 100 µM, the TGI (SF-268 CNS) was > 100 µM and the TGI (SK-OV-3 ovarian) was > 100 µM.
With COc1ccc(C(O)C(c2ccc(OCc3ccccc3)cc2)c2ccc(OCc3ccccc3)cc2)cc1 (stereo unspecified) the TGI (COLO 205 colon) was > 100 µM, the TGI (EKVX NSCLC) was > 100 µM and the TGI (HL-60(TB) leukemia) was > 100 µM. The TGI (HOP-92 NSCLC) was > 100 µM, the TGI (KM12 colon) was > 100 µM and the TGI (OVCAR-4 ovarian) was > 100 µM. The TGI (SF-268 CNS) was > 100 µM and the TGI (SK-OV-3 ovarian) was > 100 µM.
In the case of O=S(=O)(c1ccccc1)N1CCC1c1ccccc1 (stereo unspecified), the TGI (COLO 205 colon) was > 100 µM, the TGI (EKVX NSCLC) was > 100 µM and the TGI (HL-60(TB) leukemia) was 85.1 µM. The TGI (HOP-92 NSCLC) was > 100 µM, the TGI (KM12 colon) was > 100 µM and the TGI (MOLT-4 leukemia) was > 100 µM. For the same molecule, the TGI (OVCAR-4 ovarian) was > 100 µM, the TGI (SF-268 CNS) was > 100 µM and the TGI (SK-OV-3 ovarian) was > 100 µM.
COc1ccc(-c2cc(=O)c3c(C)ccnc3[nH]2)cc1 was tested, and the TGI (COLO 205 colon) was 16.4 µM, the TGI (EKVX NSCLC) was > 100 µM and the GI50 (HL-60(TB) leukemia) was 4.37 µM. The TGI (HL-60(TB) leukemia) was 17.3 µM, the TGI (KM12 colon) was 23.2 µM and the TGI (MDA-MB-231 breast) was > 100 µM. The TGI (MOLT-4 leukemia) was 50 µM, the TGI (OVCAR-4 ovarian) was > 100 µM and the TGI (SF-268 CNS) was 44.3 µM. For the same molecule, the TGI (SK-OV-3 ovarian) was > 100 µM.
In the case of O=NN(CC1(O)OCC(O)C(O)C1O)C(Cc1c[nH]c2ccccc12)C(=O)O (stereo unspecified), the TGI (COLO 205 colon) was > 100 µM, the TGI (EKVX NSCLC) was > 100 µM and the TGI (HL-60(TB) leukemia) was > 100 µM. For the same molecule, the TGI (HOP-92 NSCLC) was > 100 µM, the TGI (KM12 colon) was > 100 µM and the TGI (MOLT-4 leukemia) was > 100 µM. The TGI (SK-OV-3 ovarian) was > 100 µM.
In the case of CCOc1ccc2c(c1)[n+]([O-])c(-c1ccccc1)c(N)[n+]2[O-], the TGI (COLO 205 colon) was 81.8 µM, the TGI (EKVX NSCLC) was > 100 µM and the TGI (HL-60(TB) leukemia) was > 100 µM. For the same molecule, the TGI (KM12 colon) was > 100 µM, the TGI (MOLT-4 leukemia) was > 100 µM and the TGI (OVCAR-4 ovarian) was > 100 µM. The TGI (SF-268 CNS) was > 100 µM and the TGI (SK-OV-3 ovarian) was > 100 µM.
In the case of O=c1c2ccccc2c(=O)n2n1-c1cccc(c1)CSSCc1cccc-2c1, the GI50 (COLO 205 colon) was > 100 µM, the TGI (COLO 205 colon) was > 100 µM and the GI50 (EKVX NSCLC) was > 100 µM. For the same molecule, the TGI (EKVX NSCLC) was > 100 µM, the GI50 (KM12 colon) was > 100 µM and the TGI (KM12 colon) was > 100 µM. For the same molecule, the GI50 (MOLT-4 leukemia) was > 100 µM, the TGI (MOLT-4 leukemia) was > 100 µM and the GI50 (OVCAR-4 ovarian) was > 100 µM. The TGI (OVCAR-4 ovarian) was > 100 µM, the GI50 (SF-268 CNS) was > 100 µM and the TGI (SF-268 CNS) was > 100 µM. The TGI (SK-OV-3 ovarian) was > 100 µM.
Cc1cccc(-c2nc(=S)[nH][nH]2)c1 was tested, and the TGI (COLO 205 colon) was > 100 µM, the TGI (EKVX NSCLC) was > 100 µM and the TGI (HL-60(TB) leukemia) was > 100 µM. For the same molecule, the TGI (HOP-92 NSCLC) was > 100 µM, the TGI (KM12 colon) was > 100 µM and the TGI (MOLT-4 leukemia) was > 100 µM. For the same molecule, the TGI (OVCAR-4 ovarian) was > 100 µM, the TGI (SF-268 CNS) was > 100 µM and the TGI (SK-OV-3 ovarian) was > 100 µM.
In the case of CC(C)(Sc1cc(C(C)(C)C)c(O)c(C(C)(C)C)c1)Sc1cc(C(C)(C)C)c(O)c(C(C)(C)C)c1, the TGI (COLO 205 colon) was > 100 µM, the TGI (EKVX NSCLC) was > 100 µM and the TGI (HL-60(TB) leukemia) was 3.08 µM. The TGI (KM12 colon) was > 100 µM, the TGI (MDA-MB-231 breast) was > 100 µM and the TGI (OVCAR-4 ovarian) was > 100 µM. The TGI (SF-268 CNS) was > 100 µM and the TGI (SK-OV-3 ovarian) was > 100 µM.
O=C(c1ccccc1)c1nc2ccc(Cl)cc2cc1C(Br)Br showed a TGI (COLO 205 colon) of 1.6 µM, a TGI (EKVX NSCLC) of 1.69 µM and a TGI (HL-60(TB) leukemia) of 1.07 µM. The TGI (KM12 colon) was 1.06 µM, the TGI (MOLT-4 leukemia) was 11.8 µM and the TGI (OVCAR-4 ovarian) was 1.41 µM. The TGI (SF-268 CNS) was 0.972 µM and the TGI (SK-OV-3 ovarian) was 2.73 µM.
CCN(CC)CC(C(=O)Nc1c(C)cccc1C)/C(C)=N\NC(=S)NN (stereo unspecified) was tested, and the TGI (COLO 205 colon) was > 100 µM, the TGI (EKVX NSCLC) was > 100 µM and the TGI (HL-60(TB) leukemia) was > 100 µM. For the same molecule, the TGI (HOP-92 NSCLC) was > 100 µM, the TGI (KM12 colon) was > 100 µM and the TGI (MOLT-4 leukemia) was > 100 µM. For the same molecule, the TGI (SF-268 CNS) was > 100 µM and the TGI (SK-OV-3 ovarian) was > 100 µM.
O=c1c(-c2cccc3ccccc23)c(-c2cccc3ccccc23)c1=O was tested, and the TGI (COLO 205 colon) was 1.64 µM, the TGI (EKVX NSCLC) was > 39.4 µM and the TGI (HL-60(TB) leukemia) was 4.87 µM. For the same molecule, the TGI (HOP-92 NSCLC) was 39.4 µM, the TGI (KM12 colon) was 21.1 µM and the TGI (MOLT-4 leukemia) was > 45.2 µM. For the same molecule, the TGI (SF-268 CNS) was > 53.7 µM and the TGI (SK-OV-3 ovarian) was 26.1 µM.
For CC1COS(=O)N1c1ccccc1 (stereo unspecified), the TGI (COLO 205 colon) was > 100 µM, the TGI (EKVX NSCLC) was > 100 µM and the TGI (HL-60(TB) leukemia) was > 100 µM. The TGI (HOP-92 NSCLC) was > 100 µM, the TGI (KM12 colon) was > 100 µM and the TGI (MOLT-4 leukemia) was > 100 µM. The TGI (OVCAR-4 ovarian) was > 100 µM, the TGI (SF-268 CNS) was > 100 µM and the TGI (SK-OV-3 ovarian) was > 100 µM.
With NCCNCCNCc1c2ccccc2c(CNCCNCCN)c2ccccc12 the TGI (COLO 205 colon) was > 100 µM, the TGI (EKVX NSCLC) was > 100 µM and the TGI (HL-60(TB) leukemia) was > 100 µM. The TGI (HOP-92 NSCLC) was 84.1 µM, the TGI (KM12 colon) was > 100 µM and the TGI (MOLT-4 leukemia) was > 100 µM. For the same molecule, the TGI (OVCAR-4 ovarian) was > 100 µM, the TGI (SF-268 CNS) was > 100 µM and the TGI (SK-OV-3 ovarian) was > 100 µM.
In the case of O=C(O)c1ccccc1NS(=O)(=O)c1ccc(Cl)cc1, the TGI (COLO 205 colon) was > 100 µM, the TGI (EKVX NSCLC) was > 100 µM and the TGI (HOP-92 NSCLC) was 81.5 µM. For the same molecule, the TGI (MOLT-4 leukemia) was > 100 µM, the TGI (OVCAR-4 ovarian) was > 100 µM and the TGI (SF-268 CNS) was > 100 µM. The TGI (SK-OV-3 ovarian) was > 100 µM.
Molecule OC(c1ccccc1)c1c(-c2ccccc2)[nH]c(-c2ccccc2)c1C(O)c1ccccc1 (stereo unspecified) has a TGI (COLO 205 colon) of 3.15 µM, a TGI (EKVX NSCLC) of 13.9 µM and a TGI (HL-60(TB) leukemia) of 4.24 µM. The TGI (HOP-92 NSCLC) was 5.46 µM, the TGI (KM12 colon) was 6.09 µM and the TGI (MOLT-4 leukemia) was 7 µM. The TGI (OVCAR-4 ovarian) was 4.82 µM, the TGI (SF-268 CNS) was 23 µM and the TGI (SK-OV-3 ovarian) was 47.2 µM.
In the case of CC1=NC2(C(=O)O)C3(C(=O)O)N=C(C)OC3(C(F)(F)F)C2(C(F)(F)F)O1 (stereo unspecified), the TGI (COLO 205 colon) was > 100 µM, the TGI (EKVX NSCLC) was > 100 µM and the TGI (HL-60(TB) leukemia) was > 100 µM. For the same molecule, the TGI (HOP-92 NSCLC) was > 100 µM, the TGI (KM12 colon) was > 100 µM and the TGI (MOLT-4 leukemia) was > 100 µM. For the same molecule, the TGI (OVCAR-4 ovarian) was > 100 µM, the TGI (SF-268 CNS) was > 100 µM and the TGI (SK-OV-3 ovarian) was > 100 µM.
